Experiments:
[1] = molecular target: T1, 5-HT uptake (Rattus norvegicus, UniProt P31652); assay: 5-HT uptake inhibition in rat brain synaptosomes; assay type: biochemical; details: synaptosomes from rat medulla and pons, [3H]-5-HT
T1 construct: from tissue; host or cells: rat brain medulla and pons, synaptosomes (P2 fraction)
From the text: (§1) I. Method for Determining Noradrenalin and 5-HT Uptake Inhibition:
(§2) Synaptosomes from rat brain regions were freshly isolated for in vitro studies, as described in the publication “The isolation of nerve endings from brain” by E. G. Gray and V. P. Whittaker, J. Anatomy 96, pages 79-88, 1962. The corresponding literature description is hereby introduced as a reference and is deemed to be part of the disclosure.
(§3) The tissue (hypothalamus for the determination of noradrenalin uptake inhibition and medulla and pons for the determination of 5-HT uptake inhibition) was homogenized in ice-cooled 0.32 M sucrose (100 mg of tissue/1 mL) in a glass homogenizer with Teflon pestle using five complete up and down strokes at 840 revolutions/minute. The homogenate was centrifuged at 4° C. for 10 minutes at 1000 g. After subsequent centrifugation at 17000 g for 55 minutes, the synaptosomes (P2 fraction) were obtained, which were resuspended in 0.32 M glucose (0.5 mL/100 mg of original weight). The particular uptake was measured in a 96-well microtitre plate. The volume was 250 μl and incubation proceeded at room temperature (approx. 20-25° C.) under an O2 atmosphere. The incubation time was 7.5 minutes for [^3H]-NA and 5 minutes for [^3H]-5-HT. The 96 samples were then filtered through a Unifilter GF/B® microtitre plate (Packard) and washed with […] of incubated buffer using a “Brabdel MPXRI-96T Cell-Harvester”. The Unifilter GF/B plate was dried for 1 hour at 55° C. The plate was then sealed with a Back Seal® (Packard) and 35 μl of scintillation fluid were added per well (Ultima Gold®, Packard). After sealing with a top Seal® (Packard) and establishing an equilibrium (around 5 hours), radioactivity was determined in a “Trilux 1450 Microbeta” (Wallac).
(§4) A detailed description of the method may additionally be found in the literature, for example in M. Ch. Frink, H.-H. Hennies, W. Engelberger, M. Haurand and B. Wilffert (1996) Arzneim.-Forsch./Drug Res. 46 (III), 11, 1029-1036.

[2] = molecular target: T2, NA transporter (Rattus norvegicus, UniProt Q63380); assay: Noradrenalin uptake inhibition in rat brain synaptosomes; assay type: biochemical; details: synaptosomes from rat hypothalamus, [3H]-NA
T2 construct: from tissue; host or cells: rat brain hypothalamus, synaptosomes (P2 fraction)
T2 sequence (Q63380 1-617): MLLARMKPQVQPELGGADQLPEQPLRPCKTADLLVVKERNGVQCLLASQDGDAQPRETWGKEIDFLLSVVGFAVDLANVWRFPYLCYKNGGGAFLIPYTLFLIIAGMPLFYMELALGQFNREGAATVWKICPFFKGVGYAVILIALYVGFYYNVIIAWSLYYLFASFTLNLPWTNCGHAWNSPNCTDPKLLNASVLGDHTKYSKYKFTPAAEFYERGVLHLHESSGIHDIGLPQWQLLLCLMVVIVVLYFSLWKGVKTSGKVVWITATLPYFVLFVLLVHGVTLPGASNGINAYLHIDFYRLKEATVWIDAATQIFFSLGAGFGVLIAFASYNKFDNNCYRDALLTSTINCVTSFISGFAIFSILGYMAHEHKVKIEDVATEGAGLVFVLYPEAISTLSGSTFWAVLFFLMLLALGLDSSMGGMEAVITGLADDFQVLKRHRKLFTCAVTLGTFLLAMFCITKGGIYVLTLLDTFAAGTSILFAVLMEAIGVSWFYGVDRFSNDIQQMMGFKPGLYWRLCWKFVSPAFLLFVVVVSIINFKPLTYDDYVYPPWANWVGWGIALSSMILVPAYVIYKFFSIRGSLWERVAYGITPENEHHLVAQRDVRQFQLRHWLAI
From the text: as §1, §2, §3, §4

T1 sequence (P31652 whole entry): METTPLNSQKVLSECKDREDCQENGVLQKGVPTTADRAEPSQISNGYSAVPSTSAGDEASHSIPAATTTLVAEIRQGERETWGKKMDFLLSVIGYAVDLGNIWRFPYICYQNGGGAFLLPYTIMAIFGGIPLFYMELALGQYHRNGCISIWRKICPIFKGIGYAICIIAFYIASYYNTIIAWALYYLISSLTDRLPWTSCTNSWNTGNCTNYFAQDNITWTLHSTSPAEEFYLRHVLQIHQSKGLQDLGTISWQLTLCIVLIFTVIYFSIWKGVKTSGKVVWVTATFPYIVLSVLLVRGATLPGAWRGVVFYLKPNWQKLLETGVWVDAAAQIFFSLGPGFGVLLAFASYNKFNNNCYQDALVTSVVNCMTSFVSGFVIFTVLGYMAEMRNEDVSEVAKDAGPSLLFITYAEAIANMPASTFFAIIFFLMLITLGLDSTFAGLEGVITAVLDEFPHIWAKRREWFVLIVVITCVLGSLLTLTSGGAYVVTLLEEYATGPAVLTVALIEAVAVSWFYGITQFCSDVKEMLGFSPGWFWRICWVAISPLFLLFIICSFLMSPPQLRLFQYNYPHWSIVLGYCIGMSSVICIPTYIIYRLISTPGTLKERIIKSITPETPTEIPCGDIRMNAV

| SMILES | inhibition at 10 µM [1] [%] | inhibition at 10 µM [2] [%] |
| --- | --- | --- |
| COc1ccc(CNC(=O)c2c(-c3ccco3)c(C)cn2Cc2ccc(F)cc2)c(OC)c1 [Example 3, 1-(4-fluorobenzyl)-3-furan-2-yl-4-methyl-1H-pyrrole-2-carboxylic acid 2,4-dimethoxybenzylamide] | 58 | – |
| CCCCn1cc(C)c(-c2ccc(C)cc2)c1C(=O)NCCc1ccccn1 [Example 4, 1-butyl-4-methyl-3-p-tolyl-1H-pyrrole-2-carboxylic acid (2-pyridin-2-ylethyl)-amide] | 39 | – |
| Cc1cn(Cc2ccccc2)c(C(=O)N2CCN(c3ccccc3Cl)CC2)c1-c1ccc(Cl)cc1 [Example 8, [1-benzyl-3-(4-chlorophenyl)-4-methyl-1H-pyrrol-2-yl]-[4-(2-chlorophenyl)-piperazin-1-yl]-methanone] | – | 70 |
| Cc1ccc(Cn2cc(C)c(-c3ccc(C)cc3)c2C(=O)N2CCN(c3ccc(C)cc3C)CC2)cc1 [Example 18, [4-(2,4-dimethylphenyl)-piperazin-1-yl]-[4-methyl-1-(4-methylbenzyl)-3-p-tolyl-1H-pyrrol-2-yl]-methanone] | 50 | – |
| Cc1ccc(-c2c(C)cn(Cc3c(Cl)cccc3Cl)c2C(=O)N(C)CCc2ccccn2)cc1 [Example 19, 1-(2,6-dichlorobenzyl)-4-methyl-3-p-tolyl-1H-pyrrole-2-carboxylic acid methyl-(2-pyridin-2-ylethyl)-amide] | 39 | – |
| Cc1ccc(-c2c(C)cn(C)c2C(=O)N2CCN(C3CCCCCC3)CC2)cc1 [Example 24, (4-cycloheptylpiperazin-1-yl)-(1,4-dimethyl-3-p-tolyl-1H-pyrrol-2-yl)-methanone] | 54 | 33 |
| Cc1cn(Cc2ccccc2)c(C(=O)NCc2ccccn2)c1-c1ccccc1 [Example 26, 1-benzyl-4-methyl-3-phenyl-1H-pyrrole-2-carboxylic acid (pyridin-2-ylmethyl)-amide] | – | 33 |
| COc1ccc(-c2c(C)cn(Cc3ccc(F)cc3)c2C(=O)NC(C)C(=O)OCc2ccccc2)cc1 (stereo not shown) [Example 29, 2-{[1-(4-fluorobenzyl)-3-(4-methoxyphenyl)-4-methyl-1H-pyrrole-2-carbonyl]-amino}-propionic acid benzyl ester] | 52 | – |
| Cc1cn(CC(C)C)c(C(=O)NCc2ccc(N(C)C)cc2)c1-c1ccc(Cl)cc1 [Example 32, 3-(4-chlorophenyl)-1-isobutyl-4-methyl-1H-pyrrole-2-carboxylic acid 4-dimethylaminobenzylamide] | – | 35 |
| CCn1cc(C)c(-c2ccc(Cl)cc2)c1C(=O)NCc1cccc(OC)c1OC [Example 34, 3-(4-chlorophenyl)-1-ethyl-4-methyl-1H-pyrrole-2-carboxylic acid 2,3-dimethoxybenzylamide] | 37 | – |
| COc1ccc(-c2c(C)cn(Cc3ccc(F)cc3)c2C(=O)NCCc2cccs2)cc1 [Example 35, 1-(4-fluorobenzyl)-3-(4-methoxyphenyl)-4-methyl-1H-pyrrole-2-carboxylic acid (2-thiophen-2-ylethyl)-amide] | – | 37 |
| CCn1cc(C)c(-c2ccc(Cl)cc2)c1C(=O)NC(C(=O)OC(C)(C)C)C(C)C (stereo not shown) [Example 36, 2-{[3-(4-chlorophenyl)-1-ethyl-4-methyl-1H-pyrrole-2-carbonyl]-amino}-3-methylbutyric acid tert.-butyl ester] | 74 | – |
| COc1ccc(Cn2cc(C)c(-c3ccco3)c2C(=O)NC2CCCc3ccccc32)cc1 (stereo not shown) [Example 37, 3-furan-2-yl-1-(4-methoxybenzyl)-4-methyl-1H-pyrrole-2-carboxylic acid (1,2,3,4-tetrahydro-naphthalen-1-yl)-amide] | 68 | – |
| COc1ccc(Cn2cc(C)c(-c3ccc(C)cc3)c2C(=O)N(C)CC(=O)OCc2ccccc2)cc1 [Example 39, {[1-(4-methoxybenzyl)-4-methyl-3-p-tolyl-1H-pyrrole-2-carbonyl]-methylamino}-acetic acid benzyl ester] | 54 | – |
| CCOc1ccc(Br)cc1CN1CCN(C(=O)c2c(-c3ccccc3)c(C)cn2C)CC1 [Example 41, [4-(5-bromo-2-ethoxybenzyl)-piperazin-1-yl]-(1,4-dimethyl-3-phenyl-1H-pyrrol-2-yl)-methanone] | 37 | – |
| Cc1ccccc1N1CCN(C(=O)c2c(-c3ccc(Cl)cc3)c(C)cn2C)CC1 [Example 46, [3-(4-chlorophenyl)-1,4-dimethyl-1H-pyrrol-2-yl]-(4-o-tolylpiperazin-1-yl)-methanone] | 34 | 63 |
| CCOc1ccc(CCNC(=O)c2c(-c3ccc(OC)cc3)c(C)cn2Cc2ccc(F)cc2)cc1 [Example 47, 1-(4-fluorobenzyl)-3-(4-methoxyphenyl)-4-methyl-1H-pyrrole-2-carboxylic acid [2-(4-ethoxyphenyl)-ethyl]-amide] | 67 | – |
| COc1cc(OC)c(CN2CCN(C(=O)c3c(-c4ccc(C)cc4)c(C)cn3C)CC2)c(OC)c1 [Example 49, (1,4-dimethyl-3-p-tolyl-1H-pyrrol-2-yl)-[4-(2,4,6-trimethoxybenzyl)-piperazin-1-yl]-methanone] | 30 | – |
| Cc1cn(C)c(C(=O)N2CCN(c3ccncc3)CC2)c1-c1ccc(Cl)cc1 [Example 57, [3-(4-chlorophenyl)-1,4-dimethyl-1H-pyrrol-2-yl]-(4-pyridin-4-ylpiperazin-1-yl)-methanone] | 66 | – |
| Cc1cn(Cc2ccccc2F)c(C(=O)NCCCn2ccnc2)c1-c1ccc(Cl)cc1 [Example 58, 3-(4-chlorophenyl)-1-(2-fluorobenzyl)-4-methyl-1H-pyrrole-2-carboxylic acid (3-imidazol-1-ylpropyl)-amide] | 50 | – |
| Cc1cn(Cc2ccccc2)c(C(=O)NCCc2ccc(Br)cc2)c1-c1ccco1 [Example 60, 1-benzyl-3-furan-2-yl-4-methyl-1H-pyrrole-2-carboxylic acid [2-(4-bromophenyl)-ethyl]-amide] | 67 | – |
| Cc1cn(C)c(C(=O)N2CCN(C3CCCCCC3)CC2)c1-c1ccco1 [Example 61, (4-cycloheptylpiperazin-1-yl)-(3-furan-2-yl-1,4-dimethyl-1H-pyrrol-2-yl)-methanone] | 52 | 34 |
| COc1ccc(OCCNC(=O)c2c(-c3ccccc3)c(C)cn2Cc2ccccc2)cc1 [Example 62, 1-benzyl-4-methyl-3-phenyl-1H-pyrrole-2-carboxylic acid [2-(4-methoxyphenoxy)-ethyl]-amide] | 73 | – |
| Cc1cn(Cc2ccc(F)cc2)c(C(=O)NCCCN(C)C)c1-c1ccco1 [Example 63, 1-(4-fluorobenzyl)-3-furan-2-yl-4-methyl-1H-pyrrole-2-carboxylic acid (3-dimethylamino-propyl)-amide] | 50 | 57 |
| CCN(CC)CCCNC(=O)c1c(-c2ccc(Cl)cc2)c(C)cn1CC(C)C [Example 65, 3-(4-chlorophenyl)-1-isobutyl-4-methyl-1H-pyrrole-2-carboxylic acid (3-diethylamino-propyl)-amide] | – | 35 |
| COc1ccc(-c2c(C)cn(C)c2C(=O)N2CCN(c3cccc(Cl)c3)CC2)cc1 [Example 70, [4-(3-chlorophenyl)-piperazin-1-yl]-[3-(4-methoxyphenyl)-1,4-dimethyl-1H-pyrrol-2-yl]-methanone] | 54 | 69 |
| Cc1cn(C)c(C(=O)NCCCN2CCCCC2C)c1-c1ccc(Cl)cc1 (stereo not shown) [Example 78, 3-(4-chlorophenyl)-1,4-dimethyl-1H-pyrrole-2-carboxylic acid [3-(2-methylpiperidin-1-yl)-propyl]-amide] | – | 32 |
| Cc1cn(C)c(C(=O)NCc2ccc(F)cc2C(F)(F)F)c1-c1ccco1 [Example 80, 3-furan-2-yl-1,4-dimethyl-1H-pyrrole-2-carboxylic acid 4-fluoro-2-trifluoromethylbenzylamide] | – | 30 |
| Cc1cn(Cc2ccccc2)c(C(=O)NC(C)c2ccc3ccccc3c2)c1-c1ccco1 (stereo not shown) [Example 81, 1-benzyl-3-furan-2-yl-4-methyl-1H-pyrrole-2-carboxylic acid (1-naphthalen-2-ylethyl)-amide] | – | 57 |
